Measurements from patent US12415830B2, “Steroid compound, and use thereof and preparation method therefor” (Chengdu Kanghong Pharmaceutical Co Ltd, priority 2019, dated 2025).
Like-named read-outs stand apart in the source and are kept apart here.

Assays:
GABAA1 (α1β2γ2) receptor = biological target: T1, GABAA1 (α1β2γ2) receptor (Homo sapiens, UniProt P14867+P47870); assay: Patch-clamp electrophysiology on recombinant GABAA1 receptor in HEK293 cells, with 3 μM GABA; type: cell-based; details: for Emax at 0.1 µM: 0.1 μM compound together with 3 μmol GABA; for Emax at 0.1 µM / Emax at 1 µM: read-out: potency: ratio of the peak current on the GABAA1 receptor to the peak current in 100 μmol GABA; for Emax at 1 µM: 1 μM compound together with 3 μmol GABA
T1 construct: expressed in transfected cells
T1 sequence (P14867 28-456): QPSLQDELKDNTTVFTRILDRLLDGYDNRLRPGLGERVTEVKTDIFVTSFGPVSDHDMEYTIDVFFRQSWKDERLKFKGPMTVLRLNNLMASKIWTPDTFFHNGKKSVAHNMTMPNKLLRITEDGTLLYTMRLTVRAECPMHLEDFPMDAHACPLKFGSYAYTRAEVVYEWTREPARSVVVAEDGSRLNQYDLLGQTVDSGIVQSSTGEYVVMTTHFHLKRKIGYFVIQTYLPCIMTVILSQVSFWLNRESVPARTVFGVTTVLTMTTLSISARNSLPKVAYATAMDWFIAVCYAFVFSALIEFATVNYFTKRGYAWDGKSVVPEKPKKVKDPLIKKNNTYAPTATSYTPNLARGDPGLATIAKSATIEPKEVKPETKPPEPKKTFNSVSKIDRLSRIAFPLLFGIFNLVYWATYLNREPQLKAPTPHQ
T1 sequence (P47870 26-512): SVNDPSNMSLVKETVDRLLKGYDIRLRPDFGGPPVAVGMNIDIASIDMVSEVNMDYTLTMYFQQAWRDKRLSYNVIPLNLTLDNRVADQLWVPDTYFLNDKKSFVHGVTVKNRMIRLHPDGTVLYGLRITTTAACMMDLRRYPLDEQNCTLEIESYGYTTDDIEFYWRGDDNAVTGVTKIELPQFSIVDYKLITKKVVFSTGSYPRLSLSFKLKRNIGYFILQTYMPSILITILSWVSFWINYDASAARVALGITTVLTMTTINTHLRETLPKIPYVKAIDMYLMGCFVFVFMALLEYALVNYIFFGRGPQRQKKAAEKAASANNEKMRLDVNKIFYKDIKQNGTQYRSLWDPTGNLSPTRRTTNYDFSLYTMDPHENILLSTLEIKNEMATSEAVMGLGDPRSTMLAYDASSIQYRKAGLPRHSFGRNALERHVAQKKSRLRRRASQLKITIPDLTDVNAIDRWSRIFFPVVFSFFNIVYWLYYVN
T1 sequence (P18507 40-475 partner): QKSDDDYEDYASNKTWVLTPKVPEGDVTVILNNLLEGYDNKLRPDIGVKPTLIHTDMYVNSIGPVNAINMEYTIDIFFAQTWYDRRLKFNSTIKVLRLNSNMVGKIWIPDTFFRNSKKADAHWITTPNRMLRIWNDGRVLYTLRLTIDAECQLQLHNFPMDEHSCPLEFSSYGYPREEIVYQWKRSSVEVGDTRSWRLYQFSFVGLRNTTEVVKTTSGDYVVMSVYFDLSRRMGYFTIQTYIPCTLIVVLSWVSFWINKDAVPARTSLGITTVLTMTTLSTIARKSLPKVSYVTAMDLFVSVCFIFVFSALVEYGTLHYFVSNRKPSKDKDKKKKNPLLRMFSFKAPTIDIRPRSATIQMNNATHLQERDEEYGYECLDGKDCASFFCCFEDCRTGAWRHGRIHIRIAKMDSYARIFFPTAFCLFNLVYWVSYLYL
Description: (§1) The present invention applies the two subunits of the recombinant GABAA receptor: α1β2γ2 and α4β3δ to evaluate the potency of the exemplary compounds in vitro by patch-clamp electrophysiology.
(§2) Extracellular fluid: 140 mM NaCl, 5 mM CsCl, 2 mM CaCl2·2H2O, 1 mM MgCl2·6H2O, 5 mM HEPES, 10 mM D-Glucose, pH=7.4 (NaOH).
(§3) Intracellular fluid: 130 mM CsCl, 0.1 mM CaCl2·H2O, 2 mM MgCl2·6H2O, 1.1 mM EGTA, 5 mM Na2-ATP, 10 mM HEPES, pH=7.2 (CsOH).
The HEK293 cells line stably expressing GABAA (α1β2γ2) receptors was cultured in Dulbecco's Modified Eagle Medium (DMEM) supplemented with 10% fetal bovine serum, 800 μg/mL G418, 200 μg/mL Hygromycin B and 100 μg/mL Zeocin. Cells were grown in a humidified incubator at 37° C. with 5% carbon dioxide.
Before manual patch clamp test, the cells were detached using 0.25%-Trypsin-EDTA solution. Then 8×10^3 cells were plated onto coverslips, and cultured in a 24-well plate (final medium volume: 500 μL) and tested after 18 hours by patch clamp.
(§4) Glass pipette (BF 150-86-10, Sutter Instruments) was pulled using a micropipette puller (P97, Sutter Instruments). The glass pipette was manipulated using a micro-manipulator (MP285, Sutter Instruments) under the microscope (IX71, Olympus). After touching the cell, a slight suction was applied to achieve high seal resistance (GQ). Fast capacitance (in pF) compensation was made after achieving high seal, and the membrane was broken. Cell capacitance (in pF) compensation was made from whole-cell capacitance compensation after the whole cell mode was achieved. No leak subtraction was made.
(§5) The test and control solutions flowed into a recording chamber mounted on the stage of an inverted microscope via a gravity-fed solution delivery system. During the experiment, solutions were withdrawn from the recording chamber by vacuum aspiration. Each concentration was tested at multiple times. All tests were performed at room temperature.
(§6) Whole cell model recorded GABAA1 receptors current experimental protocol was indicated as follows: When sealing, cell was at a holding potential of −70 mV, with gap-free mode to record the peak current. The cell would be applied with 3 μM GABA to active current. After the test articles application for 30 s, each concentration of test articles was applied with 3 μM GABA followed by 2 minutes washout using extracellular solution. Finally, 100 μM GABA was used as a positive control. The data were collected by EPC-10 amplifier and stored in PatchMaster (HEKA) software.
(§7) The following criteria are used to determine whether the data is acceptable: • (1) Electrode resistance <5MΩ • (2) Seal resistance >1GΩ • (3) The start of access resistance <15 MΩ • (4) The end of access resistance <15 MΩ • (5) No obvious spontaneous current decay. • (6) No obvious current leakage when the membrane potential is-70 mv. 56.6 Data Analysis
In the detection of GABAA1, the currents of 3 μM GABA and different concentrations of test compounds were respectively normalized to the current of 100 μM GABA
[formula] and then the activation rate corresponding to each concentration was calculated.
[formula] and then the activation rate corresponding to each concentration was calculated. Means, Standard Deviation and Standard Error were calculated for each test group. EC50 value was calculated using nonlinear regression: Y=Bottom+(Top−Bottom)/(1+10^((Log EC50−X)×HillSlope))
To fit data to the concentration-response, EC50 was the concentration giving a half-maximum effect and Hillslope was the Hill coefficient. Curve-fitting and EC50 calculations were performed using Graphpad5.0 software.
Emax is defined as the ratio of the peak current generated on the GABAA1 receptor to the peak current generated only in 100 μmol of GABA and the ratio is multiplied by 100%. The peak current generated on the GABAA1 receptor is that the exemplary compounds act on the GABAA1 receptor together with 3 μmol GABA.

GABAA4 (α4β3δ) receptor = biological target: T2, GABAA4 (α4β3δ) receptor (Homo sapiens, UniProt P28472+P48169); assay: Patch-clamp electrophysiology, compound alone or with 10 nM GABA (Table 3); type: cell-based; details: for Emax: relative to peak current in GABA only
T2 construct: expressed in transfected cells; host or cells: HEK293 (transient transfection, plasmids 1:1:1)
T2 sequence (P48169 36-554): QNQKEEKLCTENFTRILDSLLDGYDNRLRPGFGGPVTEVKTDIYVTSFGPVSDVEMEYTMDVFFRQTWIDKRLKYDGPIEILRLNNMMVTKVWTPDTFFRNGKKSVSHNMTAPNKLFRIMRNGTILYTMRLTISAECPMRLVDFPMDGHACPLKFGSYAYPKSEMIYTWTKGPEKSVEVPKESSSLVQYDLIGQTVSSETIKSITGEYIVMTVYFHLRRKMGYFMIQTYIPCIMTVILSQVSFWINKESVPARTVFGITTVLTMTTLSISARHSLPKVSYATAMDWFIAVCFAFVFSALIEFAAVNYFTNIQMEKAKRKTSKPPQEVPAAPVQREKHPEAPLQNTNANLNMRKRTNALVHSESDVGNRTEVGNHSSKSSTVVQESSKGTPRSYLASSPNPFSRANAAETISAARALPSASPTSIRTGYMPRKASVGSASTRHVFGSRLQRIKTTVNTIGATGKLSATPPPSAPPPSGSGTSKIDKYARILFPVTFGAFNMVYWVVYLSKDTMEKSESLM
T2 sequence (P28472 26-473): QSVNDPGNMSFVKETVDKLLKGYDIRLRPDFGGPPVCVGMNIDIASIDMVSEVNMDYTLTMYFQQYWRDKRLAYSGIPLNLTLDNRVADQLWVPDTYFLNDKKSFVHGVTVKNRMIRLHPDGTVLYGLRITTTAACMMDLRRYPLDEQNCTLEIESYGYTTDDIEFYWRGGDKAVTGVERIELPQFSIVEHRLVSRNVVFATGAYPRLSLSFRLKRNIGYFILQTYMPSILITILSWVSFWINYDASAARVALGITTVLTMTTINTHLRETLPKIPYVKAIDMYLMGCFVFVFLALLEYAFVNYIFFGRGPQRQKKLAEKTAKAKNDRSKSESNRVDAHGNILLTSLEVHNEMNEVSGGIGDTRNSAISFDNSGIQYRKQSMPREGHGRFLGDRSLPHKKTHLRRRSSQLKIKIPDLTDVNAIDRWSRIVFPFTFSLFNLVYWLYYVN
T2 sequence (O14764 25-452 partner): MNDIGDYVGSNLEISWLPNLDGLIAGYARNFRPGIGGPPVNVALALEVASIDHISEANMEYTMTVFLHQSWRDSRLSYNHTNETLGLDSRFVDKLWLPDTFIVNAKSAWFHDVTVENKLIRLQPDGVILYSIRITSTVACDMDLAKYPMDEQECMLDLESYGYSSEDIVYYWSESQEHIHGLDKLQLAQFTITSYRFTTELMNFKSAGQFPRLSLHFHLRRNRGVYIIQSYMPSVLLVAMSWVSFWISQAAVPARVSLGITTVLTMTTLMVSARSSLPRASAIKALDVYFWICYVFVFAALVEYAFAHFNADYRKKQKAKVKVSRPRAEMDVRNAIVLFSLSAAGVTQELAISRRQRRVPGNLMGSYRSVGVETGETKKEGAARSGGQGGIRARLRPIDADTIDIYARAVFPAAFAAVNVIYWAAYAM
Description: as §1, §2, §3
HEK293 cell line was cultured in DMEM containing 10% fetal bovine serum and 5% carbon dioxide at 37° C.
Cell passage: The old medium was removed, and the cells were washed once with PBS. Then 1 mL 0.25%-Trypsin-EDTA solution was added to digest cells. The culture dish was incubated at 37° C. in pre-warmed incubator for 0.5 minutes. As soon as cells were detached, about 5 mL 37° C. pre-warmed complete medium was added. Cell aggregates were dissociated by gentle pipetting. The cell suspension was transferred into a sterile centrifuge tube and then the cell suspension was be spun at approximately 1000 rpm for 5 minutes. The cells were amplified or maintained by seeding 2.5×10^5 cells in a 6 cm dish (final medium volume: 5 mL). For transfection, 8×10^3 cells were plated onto coverslips, and cultured in a 24-well plate (final medium volume: […]).
Transfection: Second day, the transfection of GABAA4 (α4, β3, δ plasmid ratio 1:1:1) was performed. The X-tremeGENE HP DAN Transfection Reagents kit were used. The ratio of the plasmid and transfection reagent was 1 μg: 2 μL. The amount of plasmid in the 24-well plate was 0.5 μg per well, and the transfection reagent was 1 μL. The following specific steps were taken for preparing the 12 wells: The 600 μL Opti-MEM was added to a sterile centrifuge tube along with 6 μg of plasmid and was allowed to mix well; Then, the 12 μL of transfection reagent was added, mixed well following 15 min incubation at room temperature. The transfection complex was then inoculated into the cell, 50 μL per well, and the transfection complex was lightly stirred and mixed.
This mixture was changed on the third day, and the patch-clamp was performed on the fourth day.
as §4, §5
as §6, with “GABAA4” for “GABAA1”, “10 nM” for “3 μM”, “10” for “100”
as §7, with “56.6 Data Analysis” left out

[1] = with 10 nM GABA, read-out: Emax (with 10 nM GABA)
[2] = without GABA, read-out: Emax (without GABA)
[3] = with 10 nM GABA, read-out: EC50 (with 10 nM GABA)
[4] = without GABA, read-out: EC50 (without GABA)

## CC(=O)C1CCCC2[C@@H]3CC[C@H]4C[C@H](O)CC[C@]4(C)[C@H]3CC[C@]12C (stereo partly drawn) [KH001]
GABAA1 (α1β2γ2) receptor; HEK293
  Emax at 0.1 µM: 20 to 40%
  Emax at 1 µM: 60 to 80%
GABAA4 (α4β3δ) receptor; EC50 (with 10 nM GABA), with 10 nM GABA
  EC50: 132 nM
GABAA4 (α4β3δ) receptor; EC50 (without GABA), without GABA
  EC50: 173 nM
GABAA4 (α4β3δ) receptor; [1]
  Emax: 91.7%
GABAA4 (α4β3δ) receptor; [2]
  Emax: 103%

## C[C@@]1(O)CC[C@@]2(C)[C@@H](CC[C@@H]3[C@@H]2CC[C@]2(C)[C@@H](C(=O)COc4noc5ccccc45)CCC[C@@H]32)C1 [KH025]
GABAA1 (α1β2γ2) receptor; HEK293
  Emax at 0.1 µM: 0 to 20%
  Emax at 1 µM: 60 to 80%
GABAA1 (α1β2γ2) receptor; HEK293, together with 3 μmol GABA, relative to peak current in 100 μmol GABA
  Emax: 93.7%
GABAA1 (α1β2γ2) receptor; together with 3 μmol GABA
  EC50: 620 nM
GABAA4 (α4β3δ) receptor; [3]
  EC50: 572 nM
GABAA4 (α4β3δ) receptor; [1]
  Emax: 92.5%
GABAA4 (α4β3δ) receptor; [4]
  EC50: 947 nM
GABAA4 (α4β3δ) receptor; [2]
  Emax: 84.6%

## C[C@@]1(O)CC[C@@]2(C)[C@@H](CC[C@@H]3[C@@H]2CC[C@]2(C)[C@@H](C(=O)Cn4nnc(-c5ccccc5)n4)CCC[C@@H]32)C1 [KH039]
GABAA1 (α1β2γ2) receptor; HEK293
  Emax at 0.1 µM: 0 to 20%
  Emax at 1 µM: 60 to 80%
GABAA4 (α4β3δ) receptor; [3]
  EC50: > 4000 nM
GABAA4 (α4β3δ) receptor; [1]
  Emax: 125%
GABAA4 (α4β3δ) receptor; [4]
  EC50: > 4000 nM
GABAA4 (α4β3δ) receptor; [2]
  Emax: 121%

## C[C@@]1(O)CC[C@@]2(C)[C@@H](CC[C@@H]3[C@@H]2CC[C@]2(C)[C@@H](C(=O)Cn4nccn4)CCC[C@@H]32)C1 [KH043]
GABAA1 (α1β2γ2) receptor; HEK293
  Emax at 0.1 µM: 0 to 20%
  Emax at 1 µM: 20 to 40%

## Cn1nnnc1SCC(=O)[C@H]1CCC[C@H]2[C@@H]3CC[C@@H]4C[C@](C)(O)CC[C@@H]4[C@H]3CC[C@]12C [KH047]
GABAA1 (α1β2γ2) receptor; HEK293
  Emax at 0.1 µM: 0 to 20%
  Emax at 1 µM: 0 to 20%

## C[C@@]1(O)CC[C@H]2[C@H](CC[C@@H]3[C@@H]2CC[C@]2(C)[C@@H](C(=O)COc4ncnc5cnc(F)cc45)CCC[C@@H]32)C1 [KH048]
GABAA1 (α1β2γ2) receptor; HEK293
  Emax at 0.1 µM: 0 to 20%
  Emax at 1 µM: 0 to 20%

## C[C@@]1(O)CC[C@H]2[C@H](CC[C@@H]3[C@@H]2CC[C@]2(C)[C@@H](C(=O)COc4nc[nH]n4)CCC[C@@H]32)C1 [KH051]
GABAA1 (α1β2γ2) receptor; HEK293
  Emax at 0.1 µM: 0 to 20%
  Emax at 1 µM: 0 to 20%

## C[C@@]1(O)CC[C@H]2[C@H](CC[C@@H]3[C@@H]2CC[C@]2(C)[C@@H](C(=O)Cn4ncnn4)CCC[C@@H]32)C1 [KH052]
GABAA1 (α1β2γ2) receptor; HEK293
  Emax at 0.1 µM: 0 to 20%
  Emax at 1 µM: 0 to 20%
